These are literature values, as cited in patent publication US20170049679A1, “ORAL AND DENTAL HYGIENE AND CLEANING AGENTS FOR REDUCING TOOTH DISCOLORATION” (Henkel AG & Co. KGaA, priority 2014, published 2017).

Broadly, the Solubility is the concentration that dissolves in the medium under given conditions.

Read-outs that look alike come from different tables or passages of the source.

As for `[Cl-].[Cl-].[Zn+2]` [Zinc chloride], the Solubility (25° C.) was 4320 mg/mL.

As to Zinc acetylacetonate, where the note is “20° C.”, the Solubility was 4 mg/mL.

On to Zinc hydroxycarbonate, for which, for the setting “20° C.”, the “Solubility (in words)” value is recorded as “Nearly insoluble”.
